± gives the standard deviation of the averaged measurements.

The values below come from the supplement of paper PMC8092582.

The test system of the experiment is HeLa. As to the kind of experiment: cell viability (CellTiter-Glo) relative to median of lowest-dilution wells of all drugs (fraction); higher = more viable cells. The method, then:
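HeLa control and CRISPR DDX11 knockout cells were seeded in 384-well plates and incubated for 72 h with each of 64 […] drugs at six concentrations. Viability was read with CellTiter-Glo and normalised to the median of the lowest (6th) dilution wells of all drugs. Two biological replicates (BR1, BR2) are averaged; the concentration unit is not stated.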

[1] abbreviates: drug concentration (unit not stated): 0.12, genotype: DDX11 knockout.
[2] abbreviates: drug concentration (unit not stated): 0.12, genotype: control (DDX11 wild type).
Where [3] appears, read: drug concentration (unit not stated): 0.37, genotype: DDX11 knockout.
[4] abbreviates: drug concentration (unit not stated): 0.37, genotype: control (DDX11 wild type).
Where [5] appears, read: drug concentration (unit not stated): 1.11, genotype: DDX11 knockout.
[6] abbreviates: drug concentration (unit not stated): 1.11, genotype: control (DDX11 wild type).
Where [7] appears, read: drug concentration (unit not stated): 3.33, genotype: DDX11 knockout.
The mark [8] stands for this setting: drug concentration (unit not stated): 3.33, genotype: control (DDX11 wild type).
[9] abbreviates: drug concentration (unit not stated): 10, genotype: DDX11 knockout.
Setting [10] is: drug concentration (unit not stated): 10, genotype: control (DDX11 wild type).

For the compound `NC(=O)c1ccc(I)c([N+](=O)[O-])c1` [Iniparib (BSI-201)], the cell viability under setting [1] was determined as 1.01 ± 0.022; the cell viability under setting [2] was determined as 0.996 ± 0.031; the cell viability under setting [3] worked out at 1.06 ± 0.0055; the cell viability under setting [4] turned out to be 0.981 ± 0.077; the cell viability under setting [5] stood at 1.03 ± 0.045; the cell viability under setting [6] came out at 0.951 ± 0.08. Further, the cell viability runs as follows: under setting [7], 0.996 ± 0.028; under setting [8], 0.969 ± 0.12; under setting [9], 1.02 ± 0.062; under setting [10], 0.93 ± 0.17; (drug concentration (unit not stated): 30, genotype: DDX11 knockout) 0.839 ± 0.094; (drug concentration (unit not stated): 30, genotype: control (DDX11 wild type)) 0.92546 ± 0.00092.
For the compound `C[C@@H]1COCCN1c1cc(-c2ccnn2C)c2ccnc(-c3ccn[nH]3)c2n1`, the cell viability came to 1.03 ± 0.056 (drug concentration (unit not stated): 0.04, genotype: DDX11 knockout); 1.022 ± 0.0024 (drug concentration (unit not stated): 0.04, genotype: control (DDX11 wild type)); 0.981 ± 0.083 under setting [1]; 1.02 ± 0.077 under setting [2]; 0.864 ± 0.021 under setting [3]; 0.959 ± 0.29 under setting [4]. Besides, the cell viability is, setting by setting: under setting [5], 0.517 ± 0.036; under setting [6], 0.696 ± 0.19; under setting [7], 0.313 ± 0.045; under setting [8], 0.398 ± 0.16; under setting [9], 0.19 ± 0.086; under setting [10], 0.227 ± 0.096.
